Experimental data reported in patent US7511047B2, “Kinase inhibitors” (Cytopia Research Pty Ltd, priority 2002, dated 2009).

Tests used:
Assay type in all cases: biochemical
Jak2 = target: T1, Jak2 (Homo sapiens, UniProt O60674); assay: JAK2 kinase domain assay (ELISA or Alphascreen); conditions: capacity to inhibit 50% of activity at 50 μM; read-out: Jak2 inhibitory activity
T1 construct: The kinase domain of humanJAK2 was amplified from U937mRNA; His tag (from pFastBac HTc vector) (N); made in house; host or cells: baculovirus; Sf9 insect cells for virus, High Five cells for large-scale production
T1 sequence (O60674 849-1124 limits assumed): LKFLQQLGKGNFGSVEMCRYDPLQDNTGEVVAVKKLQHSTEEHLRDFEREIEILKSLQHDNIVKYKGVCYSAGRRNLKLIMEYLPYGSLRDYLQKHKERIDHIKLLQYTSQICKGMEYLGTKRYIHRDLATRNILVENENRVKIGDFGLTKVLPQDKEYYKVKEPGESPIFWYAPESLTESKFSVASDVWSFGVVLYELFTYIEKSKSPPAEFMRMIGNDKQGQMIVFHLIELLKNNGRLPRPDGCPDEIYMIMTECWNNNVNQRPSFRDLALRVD
Method: (§1) For screening purposes, compounds were diluted in 96 well plates at a concentration of 20 μM. Plates were warmed at 37° C. for 30 minutes before assay.
(§2) • JAK1 PCR products were cloned into the pFastBac HTb expression vector (Gibco) via the Xho I and Kpn I sites. The JAK1 plasmid was then transformed into competent DH10Bac cells (Gibco), and the recombinant baculovirus produced prepared for transfection into Sf9 insect cells. JAK2 • The kinase domain of humanJAK2 was amplified from U937mRNA using the polymerase chain reaction with the following primers:
• JAK2 PCR products were cloned into the pFastBac HTc expression vector (Gibco) via the Sal I and Not I sites. The JAK2 plasmid was then transformed into competent DH10Bac cells (Gibco), and the recombinant baculovirus produced prepared for transfection into Sf9 insect cells. JAK3 • The kinase domain of humanJAK3 was amplified from U937mRNA using the polymerase chain reaction with the following primers: […]
(§3) Baculovirus preparations from each of the JAK family members were infected into five litres of High Five cells (Invitrogen) grown in High Five serum free medium (Invitrogen) to a cell density of approximately 1-2×10^6 cells/ml. Cells are infected with virus at a MOI of 0.8-3.0. Cells were harvested and lysed. JAK kinase domains were purified by affinity chromatography on a Probond (Invitrogen) nickel chelate affinity column.
(§4) Kinase assays were performed either in a 96 well capture-based ELISA assay or in 384 well Optiplates (Packard) using an Alphascreen Protein Tyrosine Kinase kit. In either casse using approximately 1.5 μg of affinity purified PTK domain in the presence of 50 mM HEPES, pH 7.5, 10 mM MgCl2, 150 mM NaCl and 10 μM-1 mM ATP. The biotinylated substrate biotin-EGPWLEEEEEAYGWMDF-NH2 (SEQ ID NO:9) (final concentration 5 μM) was used as substrate. In the ELISA assay tyrosine phosphorylation was quantitated following transfer to an avidin coated ELISA plate using peroxidase-linked anti-phospho-tyrosine antibody PY20. In the Alphascreen assay, Alphascreen phosphotyrosine acceptor beads followed by streptavidin donor beads were added under subdued light. The ELISA plates were read on a BMG Fluorostar, the Alphascreen plates were read on a Packard Fusion Alpha. Inhibitors were added to the assays fifteen minutes prior to the addition of ATP. Inhibitors were added in aqueous DMSO, with DMSO concentrations never exceeding 1%.

Jak3 = target: T2, Jak3 (Homo sapiens, UniProt P52333); assay: JAK3 kinase domain assay (ELISA or Alphascreen); conditions: capacity to inhibit 50% of activity at 50 μM; read-out: Jak3 inhibitory activity
T2 construct: The kinase domain of humanJAK3 was amplified from U937mRNA; His tag (from pFastBac HTb vector) (N); made in house; host or cells: baculovirus; Sf9 insect cells for virus, High Five cells for large-scale production
T2 sequence (P52333 822-1111 limits assumed): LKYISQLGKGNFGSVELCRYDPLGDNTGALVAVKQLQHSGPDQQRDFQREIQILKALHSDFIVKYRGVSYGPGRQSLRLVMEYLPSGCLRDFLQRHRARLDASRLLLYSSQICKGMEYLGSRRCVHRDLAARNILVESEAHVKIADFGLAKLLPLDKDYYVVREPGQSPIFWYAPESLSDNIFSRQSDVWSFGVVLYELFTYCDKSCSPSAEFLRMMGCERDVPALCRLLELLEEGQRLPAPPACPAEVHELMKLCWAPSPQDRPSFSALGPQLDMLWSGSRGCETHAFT
Method: as §1
• JAK2 PCR products were cloned into the pFastBac HTc expression vector (Gibco) via the Sal I and Not I sites. The JAK2 plasmid was then transformed into competent DH10Bac cells (Gibco), and the recombinant baculovirus produced prepared for transfection into Sf9 insect cells. JAK3 • The kinase domain of humanJAK3 was amplified from U937mRNA using the polymerase chain reaction with the following primers:
as §2, with “JAK3” for “JAK1”, “TYK2” for “JAK2”, “humanTYK2” for “humanJAK2”, “A549 mRNA” for “U937mRNA”, “primers: […]” for “primers:”
as §3, §4

abl = target: T3, abl (Homo sapiens, UniProt P00519); assay: abl kinase assay (ELISA or Alphascreen); conditions: capacity to inhibit 50% of activity at 50 μM; read-out: abl inhibitory activity
T3 sequence (P00519 242-493 limits assumed): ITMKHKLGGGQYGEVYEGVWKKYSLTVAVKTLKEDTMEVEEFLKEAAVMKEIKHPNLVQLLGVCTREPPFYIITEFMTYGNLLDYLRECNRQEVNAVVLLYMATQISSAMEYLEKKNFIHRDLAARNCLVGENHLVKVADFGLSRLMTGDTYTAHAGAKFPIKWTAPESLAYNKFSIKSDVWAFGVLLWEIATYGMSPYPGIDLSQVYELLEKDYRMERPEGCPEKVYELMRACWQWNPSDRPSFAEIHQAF
Method: as §1, §4

hck = hck (Homo sapiens, UniProt P08631); assay: hck kinase assay (ELISA or Alphascreen); conditions: capacity to inhibit 50% of activity at 50 μM; read-out: hck inhibitory activity
Chain of hck (P08631 262-515 limits assumed, species assumed): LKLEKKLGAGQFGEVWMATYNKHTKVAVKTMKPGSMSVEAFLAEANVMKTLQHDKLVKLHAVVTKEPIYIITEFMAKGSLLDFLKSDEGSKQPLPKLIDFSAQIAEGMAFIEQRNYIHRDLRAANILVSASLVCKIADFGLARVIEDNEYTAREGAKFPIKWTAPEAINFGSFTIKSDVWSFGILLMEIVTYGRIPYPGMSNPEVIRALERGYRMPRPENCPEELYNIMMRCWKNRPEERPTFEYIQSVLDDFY
Method: as §1, §4

kdr = kdr (Homo sapiens, UniProt P35968); assay: kdr kinase assay (ELISA or Alphascreen); conditions: capacity to inhibit 50% of activity at 50 μM; read-out: kdr inhibitory activity
Chain of kdr (P35968 834-1162 limits assumed, species assumed): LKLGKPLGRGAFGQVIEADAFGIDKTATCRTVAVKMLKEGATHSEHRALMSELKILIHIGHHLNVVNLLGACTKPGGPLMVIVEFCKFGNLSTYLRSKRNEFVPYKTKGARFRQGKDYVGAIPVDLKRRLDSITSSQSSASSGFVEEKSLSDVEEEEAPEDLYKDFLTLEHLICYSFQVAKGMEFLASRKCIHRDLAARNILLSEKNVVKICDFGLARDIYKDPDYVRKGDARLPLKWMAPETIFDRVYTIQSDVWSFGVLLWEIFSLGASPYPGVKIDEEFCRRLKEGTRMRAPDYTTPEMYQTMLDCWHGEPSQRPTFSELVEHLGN
Method: as §1, §4

Row | Structure (SMILES) | inhibition at 50 µM (Jak2) [%] | inhibition at 50 µM (Jak3) [%] | inhibition at 50 µM (abl) [%] | inhibition at 50 µM (hck) [%] | inhibition at 50 µM (kdr) [%]
1 | c1ccc(CNc2cncc(-n3ccnc3)n2)cc1 | < 50 | < 50 | > 50 | > 50 | < 50
2 | C[C@H](Nc1cncc(-n2cnc3ccc(C(=O)N4CCOCC4)cc32)n1)c1ccccc1 | < 50 | < 50 | > 50 | > 50 | > 50
3 | C[C@H](Nc1cncc(-n2cnc3cc(C(=O)N4CCOCC4)ccc32)n1)c1ccccc1 | < 50 | < 50 | > 50 | > 50 | > 50
4 | c1cn(-c2cncc(Nc3ccc(N4CCOCC4)cc3)n2)cn1 | > 50 | < 50 | > 50 | > 50 | < 50
5 | C[C@H](Nc1cncc(-n2cnc3cc(NC(=O)c4cccnc4)ccc32)n1)c1ccccc1 | > 50 | < 50 | > 50 | > 50 | > 50
6 | Cc1cn(-c2cncc(NCc3ccc(F)cc3)n2)cn1 | > 50 | < 50 | < 50 | < 50 | < 50
7 | Cc1cncn1-c1cncc(NCc2ccc(F)cc2)n1 | < 50 | < 50 | > 50 | > 50 | < 50
8 | C[C@H](Nc1cncc(-n2cnc3ccc(C(=O)NCCCCN4CCOCC4)cc32)n1)c1ccccc1 | > 50 | > 50 | > 50 | > 50 | > 50
9 | CCN(CC)Cc1ccc2ncn(-c3cncc(NC(C)c4ccc(F)cc4)n3)c2c1 (stereo not drawn) | > 50 | < 50 | < 50 | > 50 | > 50
10 | CC(Nc1cncc(-n2cnc3ccccc32)n1)c1ccc(-c2ccccc2)cc1 (stereo not drawn) | < 50 | < 50 | > 50 | > 50 | < 50
11 | CNCCN(C)Cc1ccc2ncn(-c3cncc(NC(C)c4ccc(F)cc4)n3)c2c1 (stereo not drawn) | > 50 | < 50 | < 50 | > 50 | > 50

The remaining lines, values ahead:

Row | inhibition at 50 µM (Jak2) [%] | inhibition at 50 µM (Jak3) [%] | inhibition at 50 µM (abl) [%] | inhibition at 50 µM (hck) [%] | inhibition at 50 µM (kdr) [%] | Structure (SMILES)
12 | > 50 | < 50 | > 50 | > 50 | > 50 | C[C@@H](Nc1cncc(-n2cnc3ccccc32)n1)c1ccccc1
13 | < 50 | > 50 | < 50 | > 50 | < 50 | C[C@H](Nc1cncc(-n2cnc(-c3ccccc3)c2)n1)c1ccccc1
14 | > 50 | < 50 | > 50 | > 50 | > 50 | C[C@H](Nc1cncc(-n2cnc3ccc(C(N)=O)cc32)n1)c1ccccc1
15 | > 50 | < 50 | > 50 | > 50 | > 50 | C[C@H](Nc1cncc(-n2cnc3cc(C(N)=O)ccc32)n1)c1ccccc1
16 | < 50 | < 50 | > 50 | > 50 | > 50 | C[C@@H](Nc1cncc(-n2cnc(-c3ccccc3)c2)n1)c1ccccc1
17 | < 50 | < 50 | < 50 | > 50 | < 50 | Cc1nccn1-c1cncc(N[C@H](C)c2ccccc2)n1
18 | < 50 | < 50 | > 50 | > 50 | > 50 | C[C@H](Nc1cncc(-n2cnc3ccc(NC(=O)C4CC4)cc32)n1)c1ccccc1
19 | < 50 | < 50 | > 50 | > 50 | > 50 | C[C@H](Nc1cncc(-n2cnc3cc(NC(=O)C4CC4)ccc32)n1)c1ccccc1
20 | > 50 | < 50 | > 50 | > 50 | > 50 | C[C@H](Nc1cncc(-n2cnc3ccc(C4=NCCO4)cc32)n1)c1ccccc1
21 | > 50 | > 50 | > 50 | > 50 | > 50 | C[C@H](Nc1cncc(-n2cnc3cc(C(=O)NCCO)ccc32)n1)c1ccccc1
